In patent US8889425B2 (Bayerische Julius-Maximilians-Universität Würzburg, priority 2003, dated 2014):

Key:
[1] = tested on: adenosine A2B receptor (CHO cells; single binding domain EPAC2 sensors); test: single cell FRET, CHO cells expressing adenosine A2B receptor, EPAC2 sensors; type: cell-based; details: 24 hours after transfection, single living cells
Protocol: Transfected cells were analyzed 24 h later.

adenylyl cyclase = test: FRET signal with direct activators of adenylyl cyclase in cells; type: cell-based
[2] = tested on: endogenous beta2-adrenergic receptors (HEK293 cells; murine HCN2 (A467-K638) sensor); details: 10 μM isoproterenol
Protocol: FIG. 12. […] B. FRET measurements in living HEK293 cells stimulated with 10 μM isoproterenol via endogenous beta2-adrenergic receptors. Cells were transfected with HCN2-based (A467-K638) sensor.
Samples were excited with a light from Polychrom IV (Till Photonics). […] The imaging data were analyzed by MetaMorph 5.0r6 software (Universal Imaging Corp.) and corrected for spillover of CFP into 535 nm channel, as well as for acceptor photobleaching to give a corrected ratio F535 nm/F480 nm.

Nc1ncnc2c1ncn2[C@@H]1O[C@H](CO)[C@@H](O)[C@H]1O [adenosine]
FRET between YFP and CFP upon adenosine [1]: decrease of FRET

C=C[C@@]1(C)CC(=O)[C@]2(O)[C@@]3(C)[C@@H](O)CCC(C)(C)[C@@H]3[C@H](O)[C@H](OC(C)=O)[C@@]2(C)O1 [forskolin]
FRET-signal (adenylyl cyclase): detectable FRET-signal

CC(C)NCC(O)c1ccc(O)c(O)c1 (stereo not drawn) [isoproterenol]
cAMP-dependent FRET change upon isoproterenol [2]: decrease in FRET
